In experiment [1] the test system is Ae. aegypti. Briefly: Minimum Effective Dosage (MED) test on treated cloth, mosquito repellency. The format is in vivo, Aedes aegypti. As to conditions: for Ae. aegypti Minimum Effective Dosage, F1 / Ae. aegypti Minimum Effective Dosage, M1 / Ae. aegypti Minimum Effective Dosage, M2 / Ae. aegypti Minimum Effective Dosage, Average: Table 2; for Ae. aegypti Minimum Effective Dosage, F1: human subject F1; for Ae. aegypti Minimum Effective Dosage, F1 / Ae. aegypti Minimum Effective Dosage, M1 / Ae. aegypti Minimum Effective Dosage, M2: highest concentration 1.500 mg/cm^2; for Ae. aegypti Minimum Effective Dosage, M1: human subject M1; for Ae. aegypti Minimum Effective Dosage, M2: human subject M2; for Ae. aegypti Minimum Effective Dosage, Average: mean of 3 volunteers. How it is done: Bioassay for mosquito repellent activity: Repellency screening test for experimental chemicals were carried out to identify candidates that might be useful repellents. The repellent efficacy was compared to that of the standard repellent, DEET. Experimental compounds were assessed in one of two ways: (1) a range of concentration was evaluated to determine the minimum effective dosage (MED) which was the concentration threshold of where the repellent began to fail and allowed bites, or (2) a predetermined concentration of each repellent was applied to cloth and the activity was evaluated over several days (or in some cases months) (Katritzky, A. R., et al., Proc. Nat. Acad. Sci. (US), 105, 7359-7364 (2008); Katritzky, A. R., et al., Journal of Med. Entomol., 47: 924-938 (2010)). When conducting assays for repellency, a failure point was also predetermined for those measurements. Since experiments described herein used about 500 female mosquitoes per test, the failure point was set at 1% (equal to 5 bites) received during a test interval. From 3 to 5 volunteers participated in the screening of each set of chemicals.
Minimum Effective Dosage (MED) Test: The MED bioassays on treated cloth were a method of screening to determine the minimum amount of a repellent needed to prevent bites. Experimental compounds were prepared in solution by combining 0.15 g of experimental chemical with 2 mL of acetone in a 7.1 mL screwtop glass vial. This solution was then serially diluted to obtain nine concentrations when applied on to the cloth patch: 1.5, 0.75, 0.375, 0.187, 0.094, 0.047, 0.023, 0.011, and 0.006 mg/cm^2. The standard N,N-diethyl-3-methylbenzamide (DEET) was also tested at the same concentration levels to serve as a control and a comparison for relative repellency. A 50 cm^2 (5 cm×10 cm) patch of muslin cloth was rolled lengthwise and placed into each of the glass vials and scaled with a screwtop so it soaked up the solution. Just prior to the experiment, the pieces of treated cloth were removed from the vials, affixed to card stock tabs (5 cm×3 cm) with staples, and hung with masking tape on a rack to dry and allow acetone to evaporate. Volunteers wore a latex glove over their hands, a nylon stocking over their arm, and then wrapped a plastic Velcro-sealed sleeve over their entire forearm with a 32 cm^2 (4 cm×8 cm) window cut-out to allow mosquitoes to bite through. The nylon stocking acted as a barrier between the dried cloth and the skin, an additional precaution with experimental compounds. Dried cloth patches were stretched across the window in the plastic sleeve and held in place with masking tape. Volunteers placed their sleeve-covered arms into a screened cage for a one minute period with approximately 500 female Ae. aegypti mosquitoes that had been preselected for host-seeking behavior using a draw box (Posey, K. H., and C. E. Schreck, Mosquito News, 41: 566-568 (1981)). […] The MED recorded was the lowest passing concentration level tested for the experimental compound. […] All human volunteers in the study provided informed consent to participate of a protocol approved by the University of Florida Human Use Institutional Review Board (IRB #636-2005).

Experiment [2] relates to Ae. aegypti. Kind of experiment: Complete Protection Time test on treated cloth (duration of protection). As to conditions: Dosage 0.75 mg/cm^2 on cloth; for Duration of protection against Ae. aegypti, M-3 Days Protection: subject M-3. The experiment is classed as in vivo, Aedes aegypti. How it is done: Bioassay for mosquito repellent activity: Repellency screening test for experimental chemicals were carried out to identify candidates that might be useful repellents. The repellent efficacy was compared to that of the standard repellent, DEET. Experimental compounds were assessed in one of two ways: (1) a range of concentration was evaluated to determine the minimum effective dosage (MED) which was the concentration threshold of where the repellent began to fail and allowed bites, or (2) a predetermined concentration of each repellent was applied to cloth and the activity was evaluated over several days (or in some cases months) (Katritzky, A. R., et al., Proc. Nat. Acad. Sci. (US), 105, 7359-7364 (2008); Katritzky, A. R., et al., Journal of Med. Entomol., 47: 924-938 (2010)). When conducting assays for repellency, a failure point was also predetermined for those measurements. Since experiments described herein used about 500 female mosquitoes per test, the failure point was set at 1% (equal to 5 bites) received during a test interval. From 3 to 5 volunteers participated in the screening of each set of chemicals. Complete Protection Time Test: Complete protection time (CPT) on treated cloth is a method of screening that is used to determine the repellent duration for experimental chemicals that have not been examined for safe use on humans. The standard repellent DEET was used as a positive control as a benchmark by which to compare the repellents. Experimental compounds were prepared in solution by combining 0.075 g of experimental chemical with 1 mL of acetone in a 7.1-mL screwtop glass vial. The same concentration level of DEET was also prepared in this way to serve as a control and a comparison for relative repellency. A 50 cm^2 (5 cm×10 cm) patch of muslin cloth was rolled lengthwise and placed into each of the glass vials and sealed with a screwtop so it soaked up the solution. Just prior to the experiment, the pieces of treated cloth were removed from the vials, affixed to card stock tabs (5 cm×3 cm) with staples, and hung with masking tape on a rack to dry and allowed the volatile acetone to evaporate. Similar to the MED tests, volunteers wore a latex glove over their hands, a nylon stocking over their arm, and then wrapped a plastic Velcro-sealed sleeve over their entire forearm with a 32 cm^2 (4 cm×8 cm) window cut-out to allow mosquitoes to bite through. Dried cloth patches were stretched across the window in the plastic sleeve and held in place with masking tape. Volunteers placed their sleeve-covered arms into a screened cage for a one minute period with approximately 500 female Ae. aegypti mosquitoes that had been preselected for host-seeking behavior using a draw box. A cloth patch that received a 1% bite through level, equal to 5 mosquitoes that bit out of 500 mosquitoes, was considered a failure at that concentration. If 0-4 bites were received, then the treated cloth was still considered to be repellent at that concentration. The duration was recorded as the number of days an experimental chemical received a passing result, with day 0 being the day the sample was first dried. […] As with the tests conducted to determine CPT, volunteers in the study provided informed consent (IRB protocol #636-2005). The protocol was approved by the University of Florida Human Use Institutional Review Board.

SMILES strings stand for the structures.

As to `CC1(C)C=Cc2cc(CCO)ccc2O1` [Compound 9], in the experiment with Ae. aegypti [1], the “Ae. aegypti Minimum Effective Dosage, F1” value is on record as 0.375 mg/cm^2; the “Ae. aegypti Minimum Effective Dosage, M1” value is recorded as 0.375 mg/cm^2; the “Ae. aegypti Minimum Effective Dosage, M2” value is on record as 0.375 mg/cm^2; the “Ae. aegypti Minimum Effective Dosage, Average” value came to 0.375 mg/cm^2. For the same molecule, in the experiment with Ae. aegypti [2], the “Duration of protection, Proportion to DEET” value (from here on “Duration … to DEET”) is 0.50 and the “Duration of protection against Ae. aegypti, M-3 Days Protection” value (from here on “Duration of protection … M-3 Days Protection”) is given as 1 days.
With `CC1(C)C=Cc2c(CO)ccc(Cl)c2O1` [Compound 11, (8-chloro-2,2-dimethyl-2H-chromen-5-yl)methanol], the “mosquito repellent activity against Ae. aegypti (in words)” value in the experiment with Ae. aegypti [1] (MED test on treated cloth) was “act as mosquito repellents”. In the experiment with Ae. aegypti [1], the “Ae. aegypti Minimum Effective Dosage, F1” value is recorded as 0.011 mg/cm^2; the “Ae. aegypti Minimum Effective Dosage, M1” value turned out to be 0.011 mg/cm^2; the “Ae. aegypti Minimum Effective Dosage, M2” value was 0.011 mg/cm^2; the “Ae. aegypti Minimum Effective Dosage, Average” value is given as 0.011 mg/cm^2. The “Duration … to DEET” value with Ae. aegypti [2] stood at 1.00.
On to `CC1(C)C=Cc2cc(Cl)ccc2O1` [Compound 17], for which, in the experiment with Ae. aegypti [2], the “Duration … to DEET” value was 0.50 and the “Duration of protection … M-3 Days Protection” value is listed as 1 days.
Consider `CC1(C)C=Cc2c(C(=O)O)ccc(Cl)c2O1` [Compound 13, 8-chloro-2,2-dimethyl-2H-chromene-5-carboxylic acid], for which, in the experiment on Ae. aegypti [1], the “Ae. aegypti Minimum Effective Dosage, F1” value is on record as above 1.500 mg/cm^2; the “Ae. aegypti Minimum Effective Dosage, M1” value is on record as above 1.500 mg/cm^2; the “Ae. aegypti Minimum Effective Dosage, M2” value is above 1.500 mg/cm^2. In addition, in the experiment with Ae. aegypti [2], the “Duration … to DEET” value is 0.50 and the “Duration of protection … M-3 Days Protection” value worked out at 1 days.

The record behind these values is patent US9763444B2, “Compositions and methods for repelling blood-sucking and biting insects, ticks and mites” (The United States of America, as represented by the …, priority 2013, dated 2017).
